# Data reported in PMC10415144, “Structural insights into CodY activation and DNA recognition” (Nucleic Acids Research, 2023).
# Assays:
# SaCodY [1] = biological target: T1, SaCodY (Staphylococcus aureus, UniProt Q2FHI3); assay: X-ray crystal structure of complex; type: binding
# T1 construct: gene codY; full-length; expressed in E. coli BL21(DE3)pLysS; N-terminal His6-tag cut with TEV protease, Gly-Ala remnant before start Met
# EfCodY [2] = biological target: T2, EfCodY (Enterococcus faecalis, UniProt Q834K5); assay: bio-layer interferometry, reduction of Leu-activated binding to hutP operator DNA; type: biochemical; settings: 2 mM GTP with 10 mM Leu; pH 8, 2 mM MgCl2, 25 °C; negative effect, binding to protein only presumed
# T2 construct: gene codY; full-length; expressed in E. coli BL21(DE3)pLysS; N-terminal His6-tag cut with TEV protease, Gly-Ala remnant before start Met; two dimers on 30-bp DNA
# T2 sequence (Q834K5 entry or part of it): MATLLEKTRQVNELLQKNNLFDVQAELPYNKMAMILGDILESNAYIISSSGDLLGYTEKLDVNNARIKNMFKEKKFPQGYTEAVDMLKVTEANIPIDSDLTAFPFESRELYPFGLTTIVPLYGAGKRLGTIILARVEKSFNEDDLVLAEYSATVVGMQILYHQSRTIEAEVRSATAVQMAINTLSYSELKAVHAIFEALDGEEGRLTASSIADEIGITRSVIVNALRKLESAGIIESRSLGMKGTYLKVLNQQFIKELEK
# SaCodY [3] = biological target: T1, SaCodY; assay: bio-layer interferometry, activation of binding to hutP operator DNA; type: biochemical; settings: 10 mM Leu with 2 mM GTP; pH 8, 2 mM MgCl2, 25 °C; allosteric activator
# EfCodY [4] = biological target: T2, EfCodY; assay: Leu binding assay (method in supplement); settings: compared with Lys74Ala mutant; details only in supplement
# EfCodY [5] = biological target: T2, EfCodY; assay: X-ray crystal structure of complex; type: binding; settings: co-crystal with 30-bp DNA; 4 mM Leu; GAF domain BCAA site of protomers A and B only
# T1 sequence (Q2FHI3 whole entry): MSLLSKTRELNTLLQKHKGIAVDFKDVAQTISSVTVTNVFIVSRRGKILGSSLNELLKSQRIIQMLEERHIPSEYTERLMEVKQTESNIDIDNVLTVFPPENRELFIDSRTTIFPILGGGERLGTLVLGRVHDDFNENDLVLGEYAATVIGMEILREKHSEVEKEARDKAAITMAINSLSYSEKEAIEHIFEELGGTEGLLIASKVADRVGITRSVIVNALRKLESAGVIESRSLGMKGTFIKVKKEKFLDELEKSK
smiles,measurement,setting,value
Nc1nc2c(ncn2[C@@H]2O[C@H](COP(=O)(O)OP(=O)(O)OP(=O)(O)O)[C@@H](O)[C@H]2O)c(=O)[nH]1 [GTP],X-ray crystal structure of complex,"SaCodY [1]; co-crystal with Ile and 30-bp DNA, 2 mM GTP, GAF domain near dimer interface, allosteric",The SaCodY-DNA complex was co-crystallized with Ile and GTP
same,"bio-layer interferometry, reduction of Leu-activated binding to hutP operator DN",EfCodY [2],"Together with Leu, GTP reduced activation, presumably by interacting with the protein"
CC[C@H](C)[C@H](N)C(=O)O [Ile],X-ray crystal structure of complex,"SaCodY [1]; co-crystal with GTP and 30-bp DNA, 20 mM Ile, GAF domain BCAA site",The SaCodY-DNA complex was co-crystallized with Ile and GTP
CC(C)C[C@H](N)C(=O)O [Leu],"bio-layer interferometry, activation of binding to hutP operator DNA",SaCodY [3],SaCodY was activated by Ile (and to a lesser extent by Leu) and GTP
same,affinity,EfCodY [4],the mutant binds Leu with comparable affinity to the wild type
same,X-ray crystal structure of complex,EfCodY [5],"EfCodY complex was co-crystallized in the presence of Leu, yet Leu bound only to protomers"
